The source of these data is ChEMBL document CHEMBL6087405, “Discovery and optimization of anthraquinone derivatives containing substituted bisbenzyloxy groups as a novel scaffold damaged endoplasmic reticulum and against hepatocellular carcinoma cells” (Bioorg Med Chem, 2024).

The subject of test [1] is Huh-7. Briefly: Antiproliferative activity against human Huh-7 cells measured after 48 hrs by MTT assay. The settings on record: Huh-7, 48 h. It is filed as functional, cell-based. Background: Tetrazolium dyes change colour on reduction, which living cells bring about.
Test [2] concerns Huh-7. Put plainly: Induction of ER stress in human Huh-7 cells assessed as increase in ATF6 protein level at 4 uM incubated for 48 hrs in presence of 4pba by Western blot analysis. It is filed as functional, cell-based. (A western blot detects proteins with antibodies after separation by electrophoresis.)
Test [3] concerns Huh-7. Put plainly: Induction of ER stress in human Huh-7 cells assessed as increase in GRP78 protein level at 4 uM incubated for 48 hrs in presence of 4pba by Western blot analysis. It is filed as functional, cell-based.
In test [4] the test system is Huh-7. Briefly: Induction of ER stress in human Huh-7 cells assessed as increase in CHOP protein level at 4 uM incubated for 48 hrs in presence of 4pba by Western blot analysis. It is filed as functional, cell-based.
Test [5] has as its system Huh-7. Briefly: Induction of ER stress in human Huh-7 cells assessed as increase in calcium ion content by measuring fluorescence intensity at 4 uM incubated for 24 hrs by fluorescence microscopy based analysis. It is filed as functional, cell-based.
For test [6], the system named is Huh-7. Put plainly: Induction of ER stress in human Huh-7 cells assessed as increase in calcium ion content by measuring fluorescence intensity at 4 uM incubated for 24 hrs in presence of […] by fluorescence microscopy based analysis. It is filed as functional, cell-based.
Test [7] deals with Huh-7. Briefly: Induction of morphological change in human Huh-7 cells assessed as decrease in number of cells at 2 to 4 uM measured after 48 hrs by HE staining based microscopic analysis. It is filed as functional, cell-based. To be noted: dose 2-4 µM.
Test [8] concerns Huh-7. Put plainly: Upregulation of BAK protein level in human Huh-7 cells at 2 to 4 uM by Western blot analysis. The settings on record: dose 2-4 µM. It is filed as functional, cell-based.
The subject of test [9] is Huh-7. Put plainly: Induction of apoptosis in human Huh-7 cells assessed as necrotic cells at 4 uM measured after 48 hrs by Annexin V-PE staining based flow cytometry analysis (reference value: 3.37%). It is filed as functional. In general terms: In flow cytometry, cells or beads pass a laser one at a time.
For test [10], the system named is Huh-7. Briefly: Induction of apoptosis in human Huh-7 cells assessed as viable cells at 4 uM measured after 48 hrs by Annexin V-PE staining based flow cytometry analysis (reference value: 93.69%). To be noted: read-out: Activity. It is filed as functional.
A further test relates to Mitochondrial membrane. Put plainly: Disruption of mitochondrial membrane potential in human Huh-7 cells assessed as appearance of punctate shaped mitochondria at 2 uM measured after 24 hrs by laser scanning confocal microscopic analysis. It is filed as cell membranes.

Active and inactive are the calls of the source. The calls are words filed in the database; no cut-off is given here.

With `COc1ccc(COc2cccc3c2C(=O)c2c(OCc4ccc(OC)cc4)cc(C(=O)NCCNCCO)cc2C3=O)cc1`, in the test with Huh-7 [1], the IC50 (in general, the concentration that gives 50% inhibition) amounted to 1750 nM. Also, the result in the test with Huh-7 [2], in the test with Huh-7 [3], with Huh-7 [4] and in the test with Huh-7 [6] was inactive. Also, the result in the test with Huh-7 [5], in the test with Huh-7 [7], with Huh-7 [8] and in the test with Mitochondrial membrane was Active. Moreover, the Activity in the test on Huh-7 [9] was found to be 8.55%. Further, the viability at 4 µM with Huh-7 [10] came out at 40.2%.
